Test results reported in PubChem BioAssay AID200 (DTP/NCI, 2004).
Values joined by “and” are separate entries in the source; they are usually repeats but may differ in a detail not shown here. Equal values may be shown once. Inconclusive results and toxic doses are left out.

Test system: B6C3F1 mice, B16 melanoma ip, median survival T/C
Assay: NCI In Vivo Anticancer Drug Screen. Data for tumor model B16 Melanoma (intraperitoneal) in B6C3F1 mice
Conditions: endpoint: median survival time, schedule: Q01DX009 (ip), higher = longer survival
Summary of the method: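 Mice bearing transplanted tumor were dosed with compound or vehicle, and survival was recorded. Activity is expressed as the treated-group measurement (T) divided by the vehicle control measurement (C).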

[1] = dose: 12.5 mg/kg/injection, vehicle: saline with Tween-80
[2] = dose: 25.0 mg/kg/injection, vehicle: saline with Tween-80
[3] = dose: 50.0 mg/kg/injection, vehicle: saline with Tween-80
[4] = dose: 100.0 mg/kg/injection, vehicle: saline with Tween-80
[5] = dose: 200.0 mg/kg/injection, vehicle: saline with Tween-80
[6] = dose: 6.25 mg/kg/injection, vehicle: saline with Tween-80
[7] = dose: 50.0 mg/kg/injection, vehicle: saline
[8] = dose: 100.0 mg/kg/injection, vehicle: saline
[9] = dose: 3.13 mg/kg/injection, vehicle: saline with Tween-80
[10] = dose: 12.5 mg/kg/injection, vehicle: Klucel (hydroxypropylcellulose) (HPC)
[11] = dose: 25.0 mg/kg/injection, vehicle: Klucel (hydroxypropylcellulose) (HPC)
[12] = dose: 50.0 mg/kg/injection, vehicle: Klucel (hydroxypropylcellulose) (HPC)
[13] = dose: 100.0 mg/kg/injection, vehicle: Klucel (hydroxypropylcellulose) (HPC)
[14] = dose: 1.56 mg/kg/injection, vehicle: saline with Tween-80
[15] = dose: 3.12 mg/kg/injection, vehicle: water
[16] = dose: 6.25 mg/kg/injection, vehicle: water

**Q.** Which results are given for `O=C(O)/C=C/C(=O)N1Cc2cc3ccccc3nc2C1`?
**A.** T/C [1]: 110 % of control; T/C [2]: 99 % of control; T/C [3]: 98 % of control; T/C [4]: 94 % of control; T/C [5]: 95 % of control

**Q.** For `CC(C)(C)OC(=O)NC(Cc1c[nH]c2ccccc12)C(=O)ON1C(=O)CCC1=O` (stereo not given), which T/C [1] is on record?
**A.** 89 % of control

**Q.** And the T/C [2]?
**A.** 100 % of control

**Q.** What about the T/C [3] of the same compound?
**A.** 88 % of control

**Q.** For `O=C1CN(Cc2ccc3c(c2)OCO3)NO1`, which T/C [6] is on record?
**A.** 103 % of control and 106 % of control

**Q.** And the T/C [1]?
**A.** 109 % of control and 95 % of control

**Q.** And the T/C [2]?
**A.** 112 % of control and 107 % of control

**Q.** What about the T/C [3] of the same compound?
**A.** 115 % of control and 117 % of control

**Q.** What about the T/C [4] of the same compound?
**A.** 115 % of control

**Q.** Which results are given for `NC1=NCN(C2OC(CO)C(O)C2O)C(=O)N1` (stereo not given)?
**A.** T/C [7]: 108 % of control; T/C [8]: 105 % of control

**Q.** For `CC1=NN(c2cccc(S(=O)(=O)O)c2)C(=O)C1N=Nc1cc(Cl)cc(S(=O)(=O)O)c1O.CC1=NN(c2cccc(S(=O)(=O)O)c2)C(=O)C1N=Nc1cc(Cl)cc(S(=O)(=O)O)c1O.[Cr]` (stereo not given), which T/C [7] is on record?
**A.** 91 % of control

**Q.** What about the T/C [8] of the same compound?
**A.** 91 % of control

**Q.** For `CC(C)=CCC/C(C)=C\C=N\NS(=O)(=O)c1ccc([N+](=O)[O-])cc1`, which T/C [6] is on record?
**A.** 89 % of control

**Q.** What about the T/C [1] of the same compound?
**A.** 93 % of control

**Q.** What about the T/C [2] of the same compound?
**A.** 100 % of control

**Q.** And the T/C [3]?
**A.** 94 % of control

**Q.** Which T/C (dose: 3.12 mg/kg/injection, vehicle: saline with Tween-80) does the source give for `N#Cc1nc(C#N)c(Sc2ccccc2)c(Sc2ccccc2)c1Sc1ccccc1` here?
**A.** 104 % of control

**Q.** And the T/C [9]?
**A.** 101 % of control

**Q.** And the T/C [6]?
**A.** 98 % of control and 102 % of control

**Q.** What about the T/C [1] of the same compound?
**A.** 93 % of control and 94 % of control

**Q.** And the T/C [2]?
**A.** 101 % of control

**Q.** What about the T/C [3] of the same compound?
**A.** 97 % of control and 98 % of control

**Q.** And the T/C [4]?
**A.** 101 % of control and 104 % of control

**Q.** Which results are given for `CC(C)NC(=O)OCc1c(COC(=O)NC(C)C)c(-c2ccc(Cl)c(Cl)c2)n2c1CCC2`?
**A.** T/C (dose: 2.5 mg/kg/injection, vehicle: Klucel (hydroxypropylcellulose) (HPC)): 115 % of control; T/C (dose: 5.0 mg/kg/injection, vehicle: Klucel (hydroxypropylcellulose) (HPC)): 158 % of control; T/C (dose: 5.0 mg/kg/injection, vehicle: saline with Tween-80): 159 % of control; T/C (dose: 6.25 mg/kg/injection, vehicle: distilled water + Tween-80): 166 % of control and 169 % of control and 176 % of control; T/C (dose: 10.0 mg/kg/injection, vehicle: Klucel (hydroxypropylcellulose) (HPC)): 153 % of control and 175 % of control; T/C (dose: 10.0 mg/kg/injection, vehicle: saline with Tween-80): 196 % of control; T/C (dose: 20.0 mg/kg/injection, vehicle: Klucel (hydroxypropylcellulose) (HPC)): 209 % of control; T/C (dose: 20.0 mg/kg/injection, vehicle: saline with Tween-80): 191 % of control; T/C (dose: 40.0 mg/kg/injection, vehicle: Klucel (hydroxypropylcellulose) (HPC)): 235 % of control and 256 % of control; T/C (dose: 40.0 mg/kg/injection, vehicle: saline with Tween-80): 251 % of control; T/C (dose: 80.0 mg/kg/injection, vehicle: saline with Tween-80): 89 % of control

**Q.** `C=C1C(=O)OC2/C=C(\CO)CC/C=C(\CO)CC(OC(=O)C(C)C)C12` (stereo not given) was tested. Which T/C (dose: 3.75 mg/kg/injection, vehicle: Klucel (hydroxypropylcellulose) (HPC)) did it give?
**A.** 103 % of control

**Q.** How did the T/C [9] turn out when `COc1ccc(C(=S)N2CCN(c3ccccc3)CC2)cc1` was run?
**A.** 98 % of control

**Q.** What about the T/C [6] of the same compound?
**A.** 91 % of control

**Q.** What about the T/C [1] of the same compound?
**A.** 93 % of control

**Q.** And the T/C [2]?
**A.** 101 % of control

**Q.** For `COc1cc2cc(c1Cl)N(C)C(=O)CC(OC(=O)C(C)NC(=O)C(C)C)C1(C)OC1C(C)C1CC(O)(NC(=O)O1)C(OC)/C=C/C=C(C)C2OC` (stereo not given), which T/C (dose: 4.0 micrograms/kg/injection, vehicle: distilled water + alcohol) is on record?
**A.** 102 % of control

**Q.** What about the T/C (dose: 8.0 micrograms/kg/injection, vehicle: distilled water + alcohol) of the same compound?
**A.** 114 % of control

**Q.** Which T/C (dose: 3.12 mg/kg/injection, vehicle: DMSO) does the source give for `CC(=O)OC1=C(Br)CCc2ccccc21` here?
**A.** 88 % of control

**Q.** What about the T/C (dose: 6.25 mg/kg/injection, vehicle: DMSO) of the same compound?
**A.** 87 % of control

**Q.** And the T/C (dose: 12.5 mg/kg/injection, vehicle: DMSO)?
**A.** 88 % of control

**Q.** What about the T/C (dose: 25.0 mg/kg/injection, vehicle: DMSO) of the same compound?
**A.** 91 % of control

**Q.** What does the source list for `CC#CCOCC(O)CCl` (stereo not given)?
**A.** T/C (dose: 25.0 mg/kg/injection, vehicle: suspension in saline): 96 % of control; T/C (dose: 50.0 mg/kg/injection, vehicle: suspension in saline): 105 % of control; T/C (dose: 100.0 mg/kg/injection, vehicle: suspension in saline): 106 % of control; T/C (dose: 200.0 mg/kg/injection, vehicle: suspension in saline): 102 % of control

**Q.** `CN=C(NC#N)NCCSCc1nc[nH]c1C` was tested. Which T/C [10] did it give?
**A.** 114 % of control

**Q.** What about the T/C [11] of the same compound?
**A.** 96 % of control

**Q.** What about the T/C [12] of the same compound?
**A.** 104 % of control

**Q.** What about the T/C [13] of the same compound?
**A.** 101 % of control

**Q.** And the T/C (dose: 200.0 mg/kg/injection, vehicle: Klucel (hydroxypropylcellulose) (HPC))?
**A.** 102 % of control

**Q.** And the T/C (dose: 400.0 mg/kg/injection, vehicle: Klucel (hydroxypropylcellulose) (HPC))?
**A.** 98 % of control

**Q.** Which T/C [3] does the source give for `CC(=O)NCCSC(=O)C(=O)SCCNC(C)=O` here?
**A.** 88 % of control

**Q.** What about the T/C [4] of the same compound?
**A.** 102 % of control

**Q.** What about the T/C [5] of the same compound?
**A.** 87 % of control

**Q.** With `ClCCCN1CCN(CCCl)CC1` as the compound, how does the T/C (dose: 1.25 mg/kg/injection, vehicle: saline) read?
**A.** 98 % of control

**Q.** What about the T/C (dose: 2.5 mg/kg/injection, vehicle: saline) of the same compound?
**A.** 124 % of control and 99 % of control

**Q.** How did the T/C (dose: 12.5 mg/kg/injection, vehicle: saline) turn out when `O=c1[nH]c(=O)c2nc(-c3cccnc3)cnc2[nH]1` was run?
**A.** 92 % of control

**Q.** And the T/C (dose: 25.0 mg/kg/injection, vehicle: saline)?
**A.** 98 % of control

**Q.** And the T/C [7]?
**A.** 95 % of control

**Q.** What about the T/C [8] of the same compound?
**A.** 92 % of control

**Q.** For `O=C(Oc1ccc(-c2ccc(Br)cc2)cc1)c1ccco1`, which T/C (dose: 0.78 mg/kg/injection, vehicle: saline with Tween-80) is on record?
**A.** 107 % of control

**Q.** What about the T/C [14] of the same compound?
**A.** 106 % of control

**Q.** And the T/C [9]?
**A.** 102 % of control

**Q.** What about the T/C [6] of the same compound?
**A.** 111 % of control and 100 % of control

**Q.** What about the T/C [2] of the same compound?
**A.** 92 % of control

**Q.** And the T/C [3]?
**A.** 97 % of control

**Q.** Which T/C [4] does the source give for `CCN(CC)c1ccc(N=Nc2ccc(C)cc2)cc1` here?
**A.** 96 % of control

**Q.** What about the T/C [5] of the same compound?
**A.** 93 % of control

**Q.** What about the T/C (dose: 400.0 mg/kg/injection, vehicle: saline with Tween-80) of the same compound?
**A.** 96 % of control

**Q.** `COc1cccc2c1C(=O)c1c(O)c3c(c(O)c1C2=O)CC(O)(/C(C)=N/NC(=O)CCCCC(=O)N/N=C(\C)C1(O)Cc2c(O)c4c(c(O)c2C(OC2CC(N)C(O)C(C)O2)C1)C(=O)c1c(OC)cccc1C4=O)CC3OC1CC(N)C(O)C(C)O1` (stereo not given) was tested. Which T/C (dose: 1.56 mg/kg/injection, vehicle: water) did it give?
**A.** 191 % of control

**Q.** And the T/C [15]?
**A.** 216 % of control

**Q.** And the T/C [16]?
**A.** 335 % of control

**Q.** With `CCc1ccc(C2=C(O)C(=O)C(c3ccccc3)=C(O)C2=O)cc1` as the compound, how does the T/C (dose: 3.12 mg/kg/injection, vehicle: Klucel (hydroxypropylcellulose) (HPC)) read?
**A.** 112 % of control

**Q.** And the T/C (dose: 6.25 mg/kg/injection, vehicle: Klucel (hydroxypropylcellulose) (HPC))?
**A.** 106 % of control

**Q.** What about the T/C [10] of the same compound?
**A.** 108 % of control

**Q.** What about the T/C [11] of the same compound?
**A.** 114 % of control

**Q.** And the T/C [12]?
**A.** 114 % of control

**Q.** What about the T/C [13] of the same compound?
**A.** 108 % of control

**Q.** With `NCCc1ccc(O)cc1` as the compound, how does the T/C [7] read?
**A.** 96 % of control

**Q.** And the T/C [8]?
**A.** 96 % of control

**Q.** What about the T/C (dose: 200.0 mg/kg/injection, vehicle: saline) of the same compound?
**A.** 96 % of control

**Q.** What about the T/C (dose: 400.0 mg/kg/injection, vehicle: saline) of the same compound?
**A.** 104 % of control

**Q.** Which results are given for `C1CC[N-]CC1.[Cl][Pt+2][Cl].[NH-]C1CC1`?
**A.** T/C [14]: 117 % of control; T/C [15]: 106 % of control; T/C [16]: 116 % of control; T/C [1]: 159 % of control
